# Measured values published in article PMC4308718 (Nature Communications, 2015).
# T1: AtPHT4;4 (Arabidopsis thaliana, UniProt Q8GX78)
# T1 construct: gene PHT4; cDNA from ATG; His-tag and soluble alpha-helix protein (beta) at both ends, beta-pET-28a(+)-beta; E. coli C43(DE3); purified by Ni-NTA; proteoliposomes
# T1 sequence (Q8GX78 1-541): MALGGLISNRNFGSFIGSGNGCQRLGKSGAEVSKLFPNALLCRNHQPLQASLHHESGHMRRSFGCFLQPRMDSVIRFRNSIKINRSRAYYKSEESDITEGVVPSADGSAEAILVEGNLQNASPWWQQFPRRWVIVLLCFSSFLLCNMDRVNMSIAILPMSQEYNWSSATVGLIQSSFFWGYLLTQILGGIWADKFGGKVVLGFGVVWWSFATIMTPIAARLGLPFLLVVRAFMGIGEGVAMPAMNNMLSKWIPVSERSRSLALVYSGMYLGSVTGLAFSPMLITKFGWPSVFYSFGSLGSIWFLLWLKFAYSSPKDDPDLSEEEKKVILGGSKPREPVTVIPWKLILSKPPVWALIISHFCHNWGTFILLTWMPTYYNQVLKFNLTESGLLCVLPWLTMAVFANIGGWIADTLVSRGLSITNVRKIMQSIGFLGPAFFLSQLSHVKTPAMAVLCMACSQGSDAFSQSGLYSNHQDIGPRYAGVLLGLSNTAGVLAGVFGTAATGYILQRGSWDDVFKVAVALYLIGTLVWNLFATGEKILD
# B1: AtPHT4;4 (Arabidopsis thaliana) (protein)
# chain: T1 sequence (Q8GX78 1-541)
# What was measured:
# AtPHT4;6 = target: T2, AtPHT4;6 (Arabidopsis thaliana, UniProt Q9FKV1); details: labelled compound (32P); 100 μM phosphate; 0.1 M sodium acetate; pH 7.0
# T2 construct: gene ANTR5
# AtPHT4;5 = target: T3, AtPHT4;5 (Arabidopsis thaliana, UniProt Q3E9A0); details: labelled compound (32P); 100 μM phosphate; 0.1 M sodium acetate; pH 7.0
# T3 construct: gene ANTR6
# AtPHT4;3 = target: T4, AtPHT4;3 (Arabidopsis thaliana, UniProt Q66GI9); details: labelled compound (32P); 100 μM phosphate; 0.1 M sodium acetate; pH 7.0
# T4 construct: gene ANTR4
# AtPHT4;4 = target: T1, AtPHT4;4; test: inhibition of […]-ascorbate uptake into proteoliposomes, […] min; type: biochemical; details: 1 and 10 μM inhibitor; 100 μM ascorbate; 2 μM valinomycin; pH 7.0; 27 °C
# purified protein = substrate: O=C1O[C@H]([C@@H](O)CO)C(O)=C1O; test: purified protein; details: labelled compound (14C), valinomycin-induced inside-positive membrane potential, 4 mM KCl, pH 7.0, 27 °C
# T2 sequence (Q9FKV1 whole entry): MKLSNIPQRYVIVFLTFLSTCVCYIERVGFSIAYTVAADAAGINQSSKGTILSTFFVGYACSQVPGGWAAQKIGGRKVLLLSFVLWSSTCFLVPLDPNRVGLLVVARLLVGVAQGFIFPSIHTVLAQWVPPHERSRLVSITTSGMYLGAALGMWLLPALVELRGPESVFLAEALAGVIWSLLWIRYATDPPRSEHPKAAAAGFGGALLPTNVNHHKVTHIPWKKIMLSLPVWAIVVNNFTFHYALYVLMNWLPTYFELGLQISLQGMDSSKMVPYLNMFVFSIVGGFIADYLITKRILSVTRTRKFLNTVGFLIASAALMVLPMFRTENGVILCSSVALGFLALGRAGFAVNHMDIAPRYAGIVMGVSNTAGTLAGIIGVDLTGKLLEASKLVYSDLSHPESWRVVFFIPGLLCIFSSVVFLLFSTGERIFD
# T4 sequence (Q66GI9 whole entry): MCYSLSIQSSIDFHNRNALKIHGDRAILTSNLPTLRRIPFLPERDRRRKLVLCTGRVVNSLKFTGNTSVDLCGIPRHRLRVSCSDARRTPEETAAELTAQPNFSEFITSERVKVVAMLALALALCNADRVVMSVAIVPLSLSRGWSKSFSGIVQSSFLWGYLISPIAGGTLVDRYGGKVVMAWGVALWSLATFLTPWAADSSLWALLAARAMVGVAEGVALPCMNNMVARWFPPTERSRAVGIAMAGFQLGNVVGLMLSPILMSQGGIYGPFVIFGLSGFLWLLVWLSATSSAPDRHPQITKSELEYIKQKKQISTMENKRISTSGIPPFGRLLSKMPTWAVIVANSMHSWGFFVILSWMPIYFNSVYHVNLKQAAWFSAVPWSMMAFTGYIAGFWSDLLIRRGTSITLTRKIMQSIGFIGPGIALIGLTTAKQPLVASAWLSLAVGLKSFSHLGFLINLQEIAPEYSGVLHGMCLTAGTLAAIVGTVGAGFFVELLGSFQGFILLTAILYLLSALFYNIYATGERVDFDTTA
# T3 sequence (Q3E9A0 whole entry): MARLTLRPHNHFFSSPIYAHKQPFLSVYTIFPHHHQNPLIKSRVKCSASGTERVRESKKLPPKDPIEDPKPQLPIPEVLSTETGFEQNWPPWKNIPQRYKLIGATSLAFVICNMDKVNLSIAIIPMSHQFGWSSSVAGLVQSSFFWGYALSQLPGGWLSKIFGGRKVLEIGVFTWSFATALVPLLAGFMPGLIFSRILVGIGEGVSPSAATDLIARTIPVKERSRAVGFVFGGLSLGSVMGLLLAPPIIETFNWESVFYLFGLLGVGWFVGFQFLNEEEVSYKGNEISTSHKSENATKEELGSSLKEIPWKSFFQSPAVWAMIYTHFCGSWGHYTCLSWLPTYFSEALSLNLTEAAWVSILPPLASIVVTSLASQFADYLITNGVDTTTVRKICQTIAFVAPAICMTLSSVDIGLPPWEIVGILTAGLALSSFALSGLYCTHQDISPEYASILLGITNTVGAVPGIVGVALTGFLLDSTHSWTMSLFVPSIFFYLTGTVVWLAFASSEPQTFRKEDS
molecule,measurement,setting,value
O=P(O)(O)O [inorganic phosphate],"Na+-driven 32P-phosphate uptake into proteoliposomes, 2 min",AtPHT4;6,Na^+/Pi transport activity was detected in proteoliposomes containing all of these transporters
same,"Na+-driven 32P-phosphate uptake into proteoliposomes, 2 min",AtPHT4;5,Na^+/Pi transport activity was detected in proteoliposomes containing all of these transporters
same,"Na+-driven 32P-phosphate uptake into proteoliposomes, 2 min",AtPHT4;3,Na^+/Pi transport activity was detected in proteoliposomes containing all of these transporters
"O=S(=O)(O)c1cc(N=C=S)ccc1/C=C/c1ccc(N=C=S)cc1S(=O)(=O)O [4,4′-diisothiocyano-2,2′-stilbenedisulphonic acid]","inhibition of 14C-ascorbate uptake into proteoliposomes, 1 min",AtPHT4;4,"typical inhibitors of mammalian SLC17 family transporters, inhibited ascorbate uptake"
Cc1cc(-c2ccc(/N=N/c3ccc4c(S(=O)(=O)O)cc(S(=O)(=O)O)c(N)c4c3O)c(C)c2)ccc1/N=N/c1ccc2c(S(=O)(=O)O)cc(S(=O)(=O)O)c(N)c2c1O [Evans blue],"inhibition of 14C-ascorbate uptake into proteoliposomes, 1 min",AtPHT4;4,"typical inhibitors of mammalian SLC17 family transporters, inhibited ascorbate uptake"
B1,Km,purified protein,1200 µM
